# Experimental data: ChEMBL document CHEMBL5385855, “Design and synthesis of hederagenin derivatives modulating STING/NF-κB signaling for the relief of acute liver injury in septic mice” (2023)
# Calls of active or inactive are those of the source. The rule behind the calls is not given here.
# Experiments:
# [1] = tested on: RAW264.7; test: Antiinflammatory activity in mouse RAW264.7 cells assessed as inhibition of LPS-induced NO production at 20 uM preincubated with compound for 2 hrs followed by LPS stimulation and measured after 24 hrs by Griess reagent based analysis; format: functional, cell-based; details: time 26.0 hrs
# [2] = tested on: RAW264.7; test: Cytotoxicity against mouse RAW264.7 cells assessed as reduction in cell viability at 40 uM incubated for 4 hrs by MTT assay; format: functional
# [3] = tested on: Mus musculus; test: Antiinflammatory activity against LPS-induced liver injury BALB/c mouse model assessed as reduction in AST level in serum at 1 to 9 mg/kg, ip pretreated with compound for 3 days followed by LPS-induction and measured after 12 hrs; format: functional, organism-based; details: dose 1-9 mg/kg, time 3.5 day
# [4] = molecular target: T1, Stimulator of interferon genes protein (Mus musculus) (UniProt Q3TBT3); test: Activation of STING signaling pathway in mouse RAW264.7 cells assessed as inhibition of LPS-induced TBK1 phosphorylation at 2.5 to 10 uM pretreated with compound for 2 hrs followed by LPS-induction and measured after 6 hrs by Western blot analysis; format: cell-based; details: filed as activator, dose 2.5-10 µM, time 8.0 hrs
# T1 sequence (whole entry): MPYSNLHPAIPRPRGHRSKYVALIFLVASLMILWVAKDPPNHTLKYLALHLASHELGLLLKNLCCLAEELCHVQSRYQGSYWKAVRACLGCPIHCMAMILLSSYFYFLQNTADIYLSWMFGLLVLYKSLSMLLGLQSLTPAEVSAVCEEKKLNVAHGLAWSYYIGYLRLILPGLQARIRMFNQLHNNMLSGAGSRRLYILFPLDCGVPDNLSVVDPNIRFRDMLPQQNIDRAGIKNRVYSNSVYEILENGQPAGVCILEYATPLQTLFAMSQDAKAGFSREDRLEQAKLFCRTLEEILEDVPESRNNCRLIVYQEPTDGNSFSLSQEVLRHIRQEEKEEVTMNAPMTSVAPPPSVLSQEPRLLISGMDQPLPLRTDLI
# [5] = tested on: Mus musculus; test: Antiinflammatory activity against LPS-induced liver injury BALB/c mouse model assessed as reduction in IL-6 level in liver at 1 to 9 mg/kg, ip pretreated with compound for 3 days followed by LPS-induction and measured after 12 hrs; format: functional, organism-based; details: dose 1-9 mg/kg, time 3.5 day
# [6] = molecular target: T1, Stimulator of interferon genes protein (Mus musculus); test: Binding affinity to STING in mouse RAW264.7 cells assessed as thermal stabilization at 49 to 55 degree C at 5 to 50 uM measured for 12 hrs by cellular thermal shift assay; format: cell-based; details: filed as modulator, dose 5-50 µM
# [7] = molecular target: T1, Stimulator of interferon genes protein (Mus musculus); test: Activation of STING signaling pathway in mouse RAW264.7 cells assessed as inhibition of LPS-induced p65 phosphorylation at 2.5 to 10 uM pretreated with compound for 2 hrs followed by LPS-induction and measured after 6 hrs by Western blot analysis; format: cell-based; details: filed as activator, dose 2.5-10 µM, time 8.0 hrs
# [8] = tested on: Mus musculus; test: Antiinflammatory activity against LPS-induced liver injury BALB/c mouse model assessed as reduction in TNF-alpha level in liver at 1 to 9 mg/kg, ip pretreated with compound for 3 days followed by LPS-induction and measured after 12 hrs; format: functional, organism-based; details: dose 1-9 mg/kg, time 3.5 day
# [9] = tested on: RAW264.7; test: Antiinflammatory activity in mouse RAW264.7 cells assessed as reduction in LPS-induced IFN-beta level at 20 uM preincubated with compound for 2 hrs followed by LPS stimulation and measured after 6 hrs by ELISA analysis; format: functional, cell-based; details: time 8.0 hrs
# [10] = tested on: Mus musculus; test: Antiinflammatory activity against LPS-induced liver injury BALB/c mouse model assessed as reduction in ALT level in serum at 1 to 9 mg/kg, ip pretreated with compound for 3 days followed by LPS-induction and measured after 12 hrs; format: functional, organism-based; details: dose 1-9 mg/kg, time 3.5 day
# [11] = tested on: RAW264.7; test: Antiinflammatory activity in mouse RAW264.7 cells assessed as reduction in LPS-induced IL-6 level at 20 uM preincubated with compound for 2 hrs followed by LPS stimulation and measured after 6 hrs by ELISA analysis; format: functional, cell-based; details: time 8.0 hrs
# [12] = tested on: RAW264.7; test: Antiinflammatory activity in mouse RAW264.7 cells assessed as inhibition of LPS-induced iNOS expression at 20 uM preincubated with compound for 2 hrs followed by LPS stimulation and measured after 6 hrs by ELISA analysis; format: functional, cell-based; details: time 8.0 hrs
# [13] = tested on: Mus musculus; test: In-vivo inhibition of STING/IRF3/NF-kappaB activation in liver septic mouse model assessed as reduction in IRF3 phosphorylation at 1 to 9 mg/kg, ip pretreated with compound for 3 days followed by LPS-induction and measured after 2 hrs by Western blotting analysis; format: functional, organism-based; details: dose 1-9 mg/kg, time 74.0 hrs
# [14] = tested on: Mus musculus; test: In-vivo inhibition of STING/IRF3/NF-kappaB activation in liver septic mouse model assessed as reduction in p65 phosphorylation at 1 to 9 mg/kg, ip pretreated with compound for 3 days followed by LPS-induction and measured after 2 hrs by Western blotting analysis; format: functional, organism-based; details: dose 1-9 mg/kg, time 74.0 hrs
# [15] = tested on: Mus musculus; test: Antiinflammatory activity against LPS-induced liver injury BALB/c mouse model assessed as reduction in IFN-beta level in liver at 1 to 9 mg/kg, ip pretreated with compound for 3 days followed by LPS-induction and measured after 12 hrs; format: functional, organism-based; details: dose 1-9 mg/kg, time 3.5 day
# [16] = molecular target: T1, Stimulator of interferon genes protein (Mus musculus); test: Activation of STING signaling pathway in mouse RAW264.7 cells assessed as inhibition of LPS-induced IRF3 phosphorylation at 2.5 to 10 uM pretreated with compound for 2 hrs followed by LPS-induction and measured after 6 hrs by Western blot analysis; format: cell-based; details: filed as activator, dose 2.5-10 µM, time 8.0 hrs
# [17] = tested on: Mus musculus; test: In-vivo inhibition of STING/IRF3/NF-kappaB activation in liver septic mouse model assessed as reduction in IkappaB-alpha phosphorylation at 1 to 9 mg/kg, ip pretreated with compound for 3 days followed by LPS-induction and measured after 2 hrs by Western blotting analysis; format: functional, organism-based; details: dose 1-9 mg/kg, time 74.0 hrs
# [18] = tested on: Mus musculus; test: Antiinflammatory activity against LPS-induced liver injury BALB/c mouse model assessed as reduction in hemorrhage severity at 1 to 9 mg/kg, ip pretreated with compound for 3 days followed by LPS-induction and measured after 12 hrs by H and E staining based analysis; format: functional, organism-based; details: dose 1-9 mg/kg, time 3.5 day
# [19] = tested on: Mus musculus; test: Antiinflammatory activity against LPS-induced liver injury BALB/c mouse model assessed as reduction in ALP level in serum at 1 to 9 mg/kg, ip pretreated with compound for 3 days followed by LPS-induction and measured after 12 hrs; format: functional, organism-based; details: dose 1-9 mg/kg, time 3.5 day
# [20] = molecular target: T1, Stimulator of interferon genes protein (Mus musculus); test: Activation of STING signaling pathway in mouse RAW264.7 cells assessed as inhibition of LPS-induced IkappaB-alpha phosphorylation at 2.5 to 10 uM pretreated with compound for 2 hrs followed by LPS-induction and measured after 6 hrs by Western blot analysis; format: cell-based; details: filed as activator, dose 2.5-10 µM, time 8.0 hrs
# [21] = tested on: Mus musculus; test: In-vivo inhibition of STING/IRF3/NF-kappaB activation in liver septic mouse model assessed as reduction in STING level at 1 to 9 mg/kg, ip pretreated with compound for 3 days followed by LPS-induction and measured after 2 hrs by Western blotting analysis; format: functional, organism-based; details: dose 1-9 mg/kg, time 74.0 hrs
# [22] = tested on: Mus musculus; test: In-vivo inhibition of STING/IRF3/NF-kappaB activation in liver septic mouse model assessed as reduction in TBK phosphorylation at 1 to 9 mg/kg, ip pretreated with compound for 3 days followed by LPS-induction and measured after 2 hrs by Western blotting analysis; format: functional, organism-based; details: dose 1-9 mg/kg, time 74.0 hrs
# [23] = tested on: RAW264.7; test: Antiinflammatory activity in mouse RAW264.7 cells assessed as reduction in LPS-induced TNF-alpha level at 20 uM preincubated with compound for 2 hrs followed by LPS stimulation and measured after 6 hrs by ELISA analysis; format: functional, cell-based; details: time 8.0 hrs
structure (smiles),measurement,setting,value
CC1(C)CC[C@]2(C(=O)OCc3ccccc3)CC[C@]3(C)C(=CC[C@@H]4[C@@]5(C)Cc6nccnc6[C@@](C)(COC(=O)CCC(=O)N6CCCCC6)[C@@H]5CC[C@]43C)[C@@H]2C1,Activity,[1],Active
same,Activity,[2],>90%
CCOC(=O)c1noc2c1C[C@@]1(C)[C@@H](CC[C@]3(C)[C@@H]1CC=C1[C@@H]4CC(C)(C)CC[C@]4(C(=O)OCc4ccccc4)CC[C@]13C)[C@]2(C)CO,Activity,[2],>90%
CN1CCN(C(=O)CCC(=O)OC[C@]2(C)c3nccnc3C[C@@]3(C)[C@H]2CC[C@]2(C)[C@@H]3CC=C3[C@@H]4CC(C)(C)CC[C@]4(C(=O)OCc4ccccc4)CC[C@]32C)CC1,Activity,[2],<90%
CC1(C)CC[C@]2(C(=O)N3CCCC3C(=O)O)CC[C@]3(C)C(=CC[C@@H]4[C@@]5(C)Cc6nccnc6[C@@](C)(CO)[C@@H]5CC[C@]43C)[C@@H]2C1 (some centres not stated),Activity,[1],Active
same,Activity,[2],>90%
CC1(C)CC[C@]2(C(=O)OCc3ccccc3)CC[C@]3(C)C(=CC[C@@H]4[C@@]5(C)Cc6nccnc6[C@@](C)(COC(=O)CCC(=O)n6nnc7ccccc76)[C@@H]5CC[C@]43C)[C@@H]2C1,Activity,[2],<90%
CC1(C)CC[C@]2(C(=O)N3CCOCC3)CC[C@]3(C)C(=CC[C@@H]4[C@@]5(C)Cc6nccnc6[C@@](C)(CO)[C@@H]5CC[C@]43C)[C@@H]2C1,Activity,[1],Active
same,Activity,[2],>90%
Cc1nc2c(s1)C[C@@]1(C)[C@@H](CC[C@]3(C)[C@@H]1CC=C1[C@@H]4CC(C)(C)CC[C@]4(C(=O)O)CC[C@]13C)[C@]2(C)CO,Activity,[2],>90%
CC1(C)CC[C@]2(C(=O)OCc3ccccc3)CC[C@]3(C)C(=CC[C@@H]4[C@@]5(C)Cc6nccnc6[C@@](C)(COC(=O)CCC(=O)n6cccn6)[C@@H]5CC[C@]43C)[C@@H]2C1,Activity,[2],<90%
CC1(C)CC[C@]2(C(=O)NC(Cc3ccccc3)C(=O)O)CC[C@]3(C)C(=CC[C@@H]4[C@@]5(C)Cc6nccnc6[C@@](C)(CO)[C@@H]5CC[C@]43C)[C@@H]2C1 (some centres not stated),Activity,[1],Active
same,Activity,[2],>90%
CC(C)CC(NC(=O)[C@]12CCC(C)(C)C[C@H]1C1=CC[C@@H]3[C@@]4(C)Cc5nccnc5[C@@](C)(CO)[C@@H]4CC[C@@]3(C)[C@]1(C)CC2)C(=O)O (some centres not stated),Activity,[2],>90%
CC1(C)CC[C@]2(C(=O)O)CC[C@]3(C)C(=CC[C@@H]4[C@@]5(C)Cc6nccnc6[C@@](C)(CO)[C@@H]5CC[C@]43C)[C@@H]2C1,Activity,[3],Active
same,Activity,[4],Active
same,Activity,[5],Active
same,Activity,[6],Active
same,Activity,[7],Active
same,Activity,[8],Active
same,Activity,[9],Active
same,Activity,[10],Active
same,Activity,[1],Active
same,Activity,[11],Active
same,Activity,[12],Active
same,inhibition,[13],Active
same,inhibition,[14],Active
same,Activity,[15],Active
same,Activity,[16],Active
same,inhibition,[17],Active
same,Activity,[18],Active
same,Activity,[19],Active
same,Activity,[20],Active
same,inhibition,[21],Active
same,inhibition,[22],Active
same,Activity,[23],Active
same,Activity,[2],>90%
O=C(Nc1ccc(I)cc1)c1ccc([N+](=O)[O-])o1,Activity,[3],Active
same,Activity,[4],Active
same,Activity,[5],Active
same,Activity,[7],Active
same,Activity,[8],Active
same,Activity,[10],Active
same,inhibition,[13],Active
same,inhibition,[14],Active
same,Activity,[15],Active
same,Activity,[16],Active
same,inhibition,[17],Active
same,Activity,[18],Active
same,Activity,[19],Active
same,Activity,[20],Active
same,inhibition,[21],Active
same,inhibition,[22],Active
CC1(C)CC[C@]2(C(=O)OCc3ccccc3)CC[C@]3(C)C(=CC[C@@H]4[C@@]5(C)Cc6nccnc6[C@@](C)(COC(=O)CCC(=O)N6CCCC6)[C@@H]5CC[C@]43C)[C@@H]2C1,Activity,[2],<90%
CC1(C)CC[C@]2(C(=O)OCc3ccccc3)CC[C@]3(C)C(=CC[C@@H]4[C@@]5(C)Cc6nccnc6[C@@](C)(COC(=O)CCC(=O)N6CCOCC6)[C@@H]5CC[C@]43C)[C@@H]2C1,Activity,[2],<90%
CCOC(=O)c1noc2c1C[C@@]1(C)[C@@H](CC[C@]3(C)[C@@H]1CC=C1[C@@H]4CC(C)(C)CC[C@]4(C(=O)OCc4ccccc4)CC[C@]13C)[C@]2(C)COC(=O)CCC(=O)O,Activity,[2],>90%
CC1(C)CC[C@]2(C(=O)OCc3ccccc3)CC[C@]3(C)C(=CC[C@@H]4[C@@]5(C)Cc6nccnc6[C@@](C)(COC(=O)CCC(=O)Nc6ncn[nH]6)[C@@H]5CC[C@]43C)[C@@H]2C1,Activity,[2],<90%
